Assay results published in ChEMBL document CHEMBL4014316, “Amphiphilic Guanidinocalixarenes Inhibit Lipopolysaccharide (LPS)- and Lectin-Stimulated Toll-like Receptor 4 (TLR4) Signaling” (J Med Chem, 2017).
pIC50: −log10 of the molar value.

Tests used:
Assay type in all cases: cell-based; call rule not given here
[1] = molecular target: Toll-like receptor 4/MD-2/CD14 (Homo sapiens) (UniProt O00206+Q9Y6Y9+P08571); test: (§1) Binding affinity to CD14/MD2 (unknown origin) expressed in HEK-Blue cells co-expressing TLR4 assessed as inhibition of LPS-induced TLR4 signaling preincubated for 30 mins followed by LPS stimulation measured after overnight incubation by secreted embryonic alkaline phosphatase reporter gene assay
[2] = molecular target: Toll-like receptor 4/MD-2/CD14 (Homo sapiens, UniProt O00206+P08571+Q9Y6Y9); test: as §1
Chain of Toll-like receptor 4/MD-2/CD14 (O00206 whole entry): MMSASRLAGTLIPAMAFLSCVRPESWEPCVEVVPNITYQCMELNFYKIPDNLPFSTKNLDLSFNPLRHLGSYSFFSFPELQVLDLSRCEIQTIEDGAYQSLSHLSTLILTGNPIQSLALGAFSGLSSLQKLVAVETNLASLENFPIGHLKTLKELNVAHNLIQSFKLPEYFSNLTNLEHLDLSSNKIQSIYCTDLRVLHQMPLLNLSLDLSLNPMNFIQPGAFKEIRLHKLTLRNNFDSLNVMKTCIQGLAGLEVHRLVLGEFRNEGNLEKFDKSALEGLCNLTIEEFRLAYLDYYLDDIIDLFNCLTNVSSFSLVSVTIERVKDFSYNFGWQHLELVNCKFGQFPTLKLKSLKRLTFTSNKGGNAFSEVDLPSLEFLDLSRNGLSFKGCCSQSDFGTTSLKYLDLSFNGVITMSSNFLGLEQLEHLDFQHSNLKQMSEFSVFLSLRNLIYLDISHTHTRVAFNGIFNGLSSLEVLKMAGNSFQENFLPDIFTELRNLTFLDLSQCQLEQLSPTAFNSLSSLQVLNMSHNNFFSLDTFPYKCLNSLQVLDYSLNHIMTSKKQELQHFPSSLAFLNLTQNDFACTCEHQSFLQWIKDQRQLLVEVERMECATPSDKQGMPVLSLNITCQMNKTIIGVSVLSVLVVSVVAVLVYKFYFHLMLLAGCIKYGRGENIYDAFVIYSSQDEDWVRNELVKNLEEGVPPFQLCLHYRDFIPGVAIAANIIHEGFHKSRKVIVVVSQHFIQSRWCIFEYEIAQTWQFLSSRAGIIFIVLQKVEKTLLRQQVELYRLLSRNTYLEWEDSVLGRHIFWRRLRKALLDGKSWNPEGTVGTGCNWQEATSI
Chain of Toll-like receptor 4/MD-2/CD14 (Q9Y6Y9 whole entry): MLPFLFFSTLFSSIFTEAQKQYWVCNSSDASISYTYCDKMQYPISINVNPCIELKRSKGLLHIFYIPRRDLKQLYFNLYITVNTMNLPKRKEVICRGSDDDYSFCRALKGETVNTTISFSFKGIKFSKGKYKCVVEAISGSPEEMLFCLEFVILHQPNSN
Chain of Toll-like receptor 4/MD-2/CD14 (P08571 whole entry): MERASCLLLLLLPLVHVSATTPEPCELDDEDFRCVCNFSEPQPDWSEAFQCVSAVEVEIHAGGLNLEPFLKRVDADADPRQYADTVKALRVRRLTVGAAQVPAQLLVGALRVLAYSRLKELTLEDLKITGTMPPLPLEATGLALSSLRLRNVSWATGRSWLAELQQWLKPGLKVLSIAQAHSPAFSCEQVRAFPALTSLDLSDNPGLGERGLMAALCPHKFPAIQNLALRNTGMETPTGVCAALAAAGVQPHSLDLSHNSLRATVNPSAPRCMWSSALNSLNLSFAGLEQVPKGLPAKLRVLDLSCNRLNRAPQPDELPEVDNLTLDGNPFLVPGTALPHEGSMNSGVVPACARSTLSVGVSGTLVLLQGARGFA

Toll-like receptor 4 = Toll-like receptor 4 (Homo sapiens, UniProt O00206); test: Activation of TLR4 signaling (unknown origin) expressed in HEK-Blue cells after 30 mins by secreted embryonic alkaline phosphatase reporter gene assay; conditions: 0.5 h
Chain of Toll-like receptor 4 (O00206 whole entry): as the sequence (O00206 whole entry) above

[3] = Cytotoxicity against HEK-Blue cells assessed as reduction in cell viability up to 10 uM measured after overnight incubation by MTT assay; conditions: human

inhibition [1] | pIC50 [2] | Activity (Toll-like receptor 4) | Structure (SMILES) | Activity [3]
Dose-dependent effect | 5.00 | Not Active | CC(C)(C)c1cc2c(OCCCNC(=N)N)c(c1)Cc1cc(C(C)(C)C)cc(c1OCCCNC(=N)N)Cc1cc(C(C)(C)C)cc(c1OCCCNC(=N)N)Cc1cc(C(C)(C)C)cc(c1OCCCNC(=N)N)C2.Cl.Cl.Cl.Cl | –
Dose-dependent effect | 6.70 | Not Active | CC(C)(C)c1cc2c(OCCCCNC(=N)N)c(c1)Cc1cc(C(C)(C)C)cc(c1OCCCCNC(=N)N)Cc1cc(C(C)(C)C)cc(c1OCCCCNC(=N)N)Cc1cc(C(C)(C)C)cc(c1OCCCCNC(=N)N)C2.Cl.Cl.Cl.Cl | –
– | – | Not Active | CCCCCCOc1c2cc(NC(=N)N)cc1Cc1cc(NC(=N)N)cc(c1OCCCCCC)Cc1cc(NC(=N)N)cc(c1OCCCCCC)Cc1cc(NC(=N)N)cc(c1OCCCCCC)C2.Cl.Cl.Cl.Cl | Non-Toxic
– | – | Not Active | CCCOc1c2cc(NC(=N)N)cc1Cc1cc(NC(=N)N)cc(c1OCCC)Cc1cc(NC(=N)N)cc(c1OCCC)Cc1cc(NC(=N)N)cc(c1OCCC)C2.Cl.Cl.Cl.Cl | Non-Toxic
